According to US20240018146A1, “COMPOSITIONS AND METHODS OF USING THE SAME FOR TREATMENT OF NEURODEGENERATIVE AND MITOCHONDRIAL DISEASE” (MITOKININ, INC., priority 2020, published 2024):
Like-named read-outs stand apart in the source and are kept apart here.

Tests used:
Format in all cases: cell-based
pS129 α-syn = test: Preformed fibril (PFF) model in primary neuron culture, pS129 α-syn; details: increasing doses
Experimental: 4. Preformed Fibril Model
Mouse and human alpha-synuclein monomers have been sourced commercially, then pre-formed fibrils have been generated as per the detailed protocol provided by the MJFF. For in vitro experiments primary hippocampal neurons isolated from P0 pups were grown for 7 days after which PFFs at 5 ug/ml were introduced Pre-formed fibrils will be introduced via stereotactic injection into the striatum of wt (C57BL/6J, Jax #000664) and transgenic A53T mice (B6;C3-Tg(Prnp-SNCA*A53T)83Vle/J, Jax #004479). Cohorts of drug-treated (oral gavage) and untreated animals will then be allowed to age for up to 6 months, at which point they will be sacrificed and perfused. Brains will be removed and fixed, then sectioned for analysis. We anticipate that untreated A53T animals will show significant spreading of aggregated alpha-synuclein pathology and pS129 staining, as well as some possible neurodegeneration; wt animals are also expected to show pS129 synuclein staining and synuclein aggregation, albeit less than that seen in the A53T background.

HeLa MKYP cells [1] = test: Human mitophagy assay (HeLa mKeima assay, FACS); details: read-out: Mitophagy induction EC50
Summary of the method: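 HeLa cells carrying the pH-sensitive mtKeima tag incubated 16 h with compound at several concentrations, then 1 uM FCCP/oligomycin for 6 h. FACS detects mitochondria in lysosomes through the Keima emission shift, quantified as percentage of cells in mitophagy.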

HeLa MKYP cells [2] = test: Cell death measured by DAPI staining, with 1 μM FCCP/oligomycin or no toxin (no FO)
Summary of the method: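 HeLa MKYP cells were treated with compounds alongside 1 μM FCCP/oligomycin or no toxin for 6 or 6.5 h. Cell death was scored by DAPI staining, with H2O2 treatment as the death control.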

[3] = Mitotoxicity / Mitotox safety margin (therapeutic window)

Row | Structure (SMILES) | pS129 α-syn (250-12) in primary neuron culture (pS129 α-syn) | pS129 α-syn (monomer) in primary neuron culture (pS129 α-syn) | pS129 α-syn in primary neuron culture (pS129 α-syn) | EC50 (HeLa MKYP cells [1]) [nM] | Highest safe dose (cytotoxicity; no FO; safe means DAPI+ <20%) (HeLa MKYP cells [2]) [µM] | Max % death with 1 μM FO (HeLa MKYP cells [2]) [%] | EC50 (HeLa MKYP cells [1]; Homo sapiens, HeLa) [nM] | Mito-Safety Index (highest safe dose/EC50) [3] | Highest safe dose (μM) (mitotox or cytotox) [3] [µM]
1 | c1ccc2c(c1)OCC(N1CC3CCOC3C1)C2Nc1ncnc2[nH]c(C3CC3)cc12 (single isomer, unassigned) [EP-0041668] | reduces | reduces | reduces | 140 | 25.0 | 8.0 | – | – | –
2 | C[C@@H]1CN([C@@H]2COc3cc(F)ccc3[C@H]2Nc2ncnc3[nH]c(C(F)(F)F)cc23)CCO1 [EP-0041088] | reduces | reduces | reduces | – | 25.0 | 16.2 | 120 | 128.93 | 15.7
3 | c1ccc2c(c1)OC[C@H](C1CCOCC1)[C@H]2Nc1ncnc2[nH]c(C3CC3)cc12 (single isomer, unassigned) [EP-0040587] | reduces | reduces | reduces | – | 25.0 | 21.5 | 90 | 230.81 | 21.5
4 | C[C@H]1CN([C@H]2CCc3ccccc3[C@@H]2Nc2ncnc3[nH]c(C(F)(F)F)cc23)CCO1 (single isomer, unassigned) [EP-0040503] | reduces | reduces | reduces | – | 25.0 | 7.4 | 130 | 69.05 | 9.1
5 | COC1CN([C@@H]2COc3ccccc3[C@H]2Nc2ncnc3[nH]c(C(F)(F)F)cc23)C1 [EP-0040850] | reduces | reduces | reduces | – | 25.0 | 10.3 | 240 | 88.53 | 21.4
6 | CO[C@@H]1CCN([C@H]2COc3ccccc3[C@@H]2Nc2ncnc3[nH]c(C(F)(F)F)cc23)C1 [EP-0041161] | reduces | reduces | reduces | – | 25.0 | 8.5 | 50 | 75.49 | 3.4
7 | c1ccc2c(c1)OCC(N1CC3CCOC3C1)C2Nc1ncnc2[nH]c(C3CC3)cc12 (single isomer, unassigned) [EP-0041670] | reduces | reduces | reduces | 460 | 25.0 | 5.4 | – | – | –
8 | Fc1ccc2c(c1)OC[C@H](N1C[C@@H]3COC[C@H]3C1)[C@H]2Nc1ncnc2[nH]c(C3CC3)cc12 (single isomer, unassigned) [EP-0040874] | reduces | reduces | reduces | 150 | 25.0 | 14.4 | – | 94.72 | 13.9
9 | C[C@@H]1CN([C@H]2CCc3ccccc3[C@@H]2Nc2ncnc3[nH]c(C4CC4)cc23)C[C@H](C)O1 (single isomer, unassigned) [EP-0040498] | – | – | – | – | 25.0 | 16.5 | 20 | 30.45 | 0.7
10 | C[C@@H]1CN([C@H]2CCc3ccccc3[C@@H]2Nc2ncnc3[nH]c(C(F)(F)F)cc23)CCO1 (single isomer, unassigned) [EP-0040491] | – | – | – | – | 25.0 | 19.4 | 70 | 49.72 | 3.7
11 | COC[C@@H]1CCN(C2COc3ccccc3C2Nc2ncnc3[nH]c(C4CC4)cc23)C1 (single isomer, unassigned) [EP-0041514] | – | – | – | 30 | 25.0 | 8.1 | – | 38.63 | 1.4
12 | C[C@@H]1CN([C@H]2CCc3ccccc3[C@@H]2Nc2ncnc3[nH]c(C(F)(F)F)cc23)C[C@H](C)O1 (single isomer, unassigned) [EP-0040493] | – | – | – | – | 25.0 | 14.8 | 20 | 103.09 | 1.7
13 | COC[C@H]1CCN([C@H]2COc3ccccc3[C@@H]2Nc2ncnc3[nH]c(C(F)(F)F)cc23)C1 (single isomer, unassigned) [EP-0041175] | – | – | – | 150 | 25.0 | 8.8 | – | 30.68 | 4.5
14 | C[C@@H]1CN([C@H]2COc3ccccc3[C@@H]2Nc2ncnc3[nH]c(C(F)(F)F)cc23)C[C@H](C)O1 (single isomer, unassigned) [EP-0040749] | – | – | – | – | 25.0 | 34.3 | 150 | 48.24 | 7.1
15 | C[C@@H]1CN([C@H]2CCc3ccccc3[C@@H]2Nc2ncnc3[nH]c(C4CC4)cc23)CCO1 (single isomer, unassigned) [EP-0040496] | – | – | – | – | 25.0 | 15.6 | 20 | 82.87 | 1.3
16 | C[C@@H]1CN([C@@H]2COc3ccccc3[C@H]2Nc2ncnc3[nH]c(C(F)(F)F)cc23)CCO1 [EP-0040956] | – | – | – | – | 25.0 | 24.7 | 190 | 52.10 | 9.7
17 | COC1CN([C@H]2CCc3ccccc3[C@@H]2Nc2ncnc3[nH]c(C(F)(F)F)cc23)C1 [EP-0040857] | reduces | reduces | reduces | 160 | 25.0 | 17.0 | – | 116.38 | 18.7
18 | Fc1cccc2c1CC[C@@H](N1C[C@H]3COC[C@H]3C1)[C@@H]2Nc1ncnc2[nH]c(C3CC3)cc12 (single isomer, unassigned) [EP-0040577] | – | – | – | – | 25.0 | 28.6 | 20 | 86.01 | 1.3
19 | C[C@@H]1CN([C@H]2COc3cc(F)ccc3[C@@H]2Nc2ncnc3[nH]c(C4CC4)cc23)C[C@H](C)O1 (single isomer, unassigned) [EP-0040842] | – | – | – | – | 25.0 | 22.5 | 20 | 82.00 | 2.0
20 | FC(F)(F)c1cc2c(N[C@H]3c4ccccc4OC[C@H]3C3CCCOC3)ncnc2[nH]1 (mixture of isomers) [EP-0041004] | – | – | – | – | 25.0 | 71.7 | 980 | 25.46 | 25.0
21 | c1ccc2c(c1)CC[C@H](C1CCOCC1)[C@H]2Nc1ncnc2[nH]c(C3CC3)cc12 [EP-0040726] | – | – | – | – | 25.0 | 20.5 | 20 | 100.89 | 2.1
